Here are results for 20 molecules from ChEMBL document CHEMBL1136842, “5-Nitrofuran-2-yl derivatives: synthesis and inhibitory activities against growing and dormant mycobacterium species” (Bioorg Med Chem Lett, 2009).

In brackets after ≈: the same amount, converted by molar mass.

The assay has as its system Mycobacterium tuberculosis variant microti. The experiment in a line: Antimycobacterial activity against Mycobacterium microti MTCC 1727 by agar dilution method. It is filed as functional.
For orientation: MIC means the lowest concentration found to suppress growth. Lower therefore signals a more susceptible organism. For the molecule `Cc1ccc(NC(=S)N/N=C/c2ccc([N+](=O)[O-])o2)c(C)c1`, it took 78.5 µM (≈ 25 µg/mL) to inhibit growth (MIC).
In the case of `O=[N+]([O-])c1ccc(/C=N/NC(=S)Nc2ccc(Cl)cc2)o1` it was 38.4 µM (≈ 12.5 µg/mL); in that of `Cc1ccc(C)c(NC(=S)N/N=C/c2ccc([N+](=O)[O-])o2)c1`, 157 µM (≈ 50 µg/mL).
`NS(=O)(=O)c1ccc(NC(=S)N/N=C/c2ccc([N+](=O)[O-])o2)cc1` came in with an MIC of 67.6 µM (≈ 25 µg/mL).
Molecule `Cc1cc(C)nc(NC(=S)N/N=C/c2ccc([N+](=O)[O-])o2)c1` gave a minimal inhibitory concentration (MIC) of 39.1 µM (≈ 12.5 µg/mL).
Molecule `O=[N+]([O-])c1ccc(/C=N/NC(=S)Nc2ccc(Cl)cn2)o1` showed a minimal inhibitory concentration (MIC) of 38.3 µM (≈ 12.5 µg/mL).
As for `Cc1ccc(NC(=S)N/N=C/c2ccc([N+](=O)[O-])o2)cc1`, the MIC came out at 20.5 µM (≈ 6.24 µg/mL).
With `NNC(=O)c1ccncc1` [ISONIAZID], the MIC is 22.8 µM (≈ 3.13 µg/mL).
For the molecule `O=[N+]([O-])c1ccc(/C=N/NC(=S)Nc2ncc(Br)cc2Br)o1`, it took 6.9 µM (≈ 3.1 µg/mL) to inhibit growth (MIC).
The molecule `Cc1cccc(C)c1NC(=S)N/N=C/c1ccc([N+](=O)[O-])o1` showed an MIC of 78.5 µM (≈ 25 µg/mL).
In the case of `COc1ccc(NC(=S)N/N=C/c2ccc([N+](=O)[O-])o2)cc1` it was 78 µM (≈ 25 µg/mL); in that of `O=C(O)c1cn(C2CC2)c2cc(N3CCNCC3)c(F)cc2c1=O` [CIPROFLOXACIN], 2.35 µM (≈ 0.779 µg/mL).
`COc1ccc(NC(=S)N/N=C/c2ccc([N+](=O)[O-])o2)c(OC)c1` registered an MIC of 17.8 µM (≈ 6.24 µg/mL).
Regarding `Cc1ccnc(NC(=S)N/N=C/c2ccc([N+](=O)[O-])o2)c1`, the minimum inhibitory concentration (MIC) was determined as 20.5 µM (≈ 6.26 µg/mL).
Consider `O=[N+]([O-])c1ccc(/C=N/NC(=S)Nc2ccccn2)o1`, for which 48.4 µM (≈ 14.1 µg/mL) was the least that counted as inhibitory (MIC).
`O=[N+]([O-])c1ccc(/C=N/NC(=S)Nc2ccccc2Br)o1` returned an MIC of 67.1 µM (≈ 24.8 µg/mL).
Consider `CCc1cccc(CC)c1NC(=S)N/N=C/c1ccc([N+](=O)[O-])o1`, for which the MIC was 72.1 µM (≈ 25 µg/mL).
In the case of `CO[C@H]1/C=C/O[C@@]2(C)Oc3c(C)c(O)c4c(O)c(c(/C=N/N5CCN(C)CC5)c(O)c4c3C2=O)NC(=O)/C(C)=C\C=C\[C@H](C)[C@H](O)[C@@H](C)[C@@H](O)[C@@H](C)[C@H](OC(C)=O)[C@@H]1C` [RIFAMPIN] it was 30.4 µM (≈ 25 µg/mL).
`Cc1cccnc1NC(=S)N/N=C/c1ccc([N+](=O)[O-])o1` showed an MIC of 10.2 µM (≈ 3.11 µg/mL).
As to `O=[N+]([O-])c1ccc(/C=N/NC(=S)Nc2ccccc2)o1`, 86.1 µM (≈ 25 µg/mL) was the least that counted as inhibitory (MIC).
